Assay results: US5663298A, “UCK14 compounds” (Kyowa Hakko Kogyo Co., Ltd., priority 1995, dated 1997)

Assays:
[1] = system: human epidermoid carcinoma A431 cells; assay: Growth inhibition against human epidermoid carcinoma A431 cells (MTT); format: cell-based; conditions: 72 hours culture, read-out: IC50 (50% growth inhibitory concentration) A431
Text: (§1) Growth inhibition against human epidermoid carcinoma A431 cells and human pancreatic carcinoma PSN-1 cells
(§2) Human epidermoid carcinoma A431 cells (ATCC CRL 1555) were suspended in Dulbecco's modified Eagle's medium (Nissui Pharmaceutical Co., Ltd.) supplemented with 10% fetal bovine serum (Filtron), and human pancreatic carcinoma PSN-1 cells [Biochem. Biophys. Res. Commun. 140, 167 (1986)] were suspended in RPMI-1640 medium (Gibco BRL) supplemented with 5% fetal bovine serum (Filtron). Each cell suspension was put into wells of a 96-well microtiter plate (#167008, Nunc) in an amount of 3×10^3 cells/well, followed by preincubation in a 5% CO2 -incubator at 37° C. for 24 hours. Then, 5mM solutions of UCK14A1, UCK14A2 and UCK14C were diluted stepwise and the resulting solutions were respectively added to the wells in an amount of 50 μl/well (highest final concentration: 1 mM). The cells were cultured in the 5% CO2 -incubator at 37° C. for 72 hours. Five hours before the end of culturing, 50 μl of a solution of MTT [3-(4,5-dimethylthiazo-2-yl)-2,5-diphenyltetrazolium bromide (Sigma Chemical Co., Ltd.)] in the medium (final concentration: 1 mg/ml) was added to each well. After the completion of culturing, DMSO was added to the wells in an amount of 150 μl/well, followed by vigorous stirring with a plate mixer to completely dissolve crystals of MTT-formazan. […]

[2] = system: human pancreatic carcinoma PSN-1 cells; assay: Growth inhibition against human pancreatic carcinoma PSN-1 cells (MTT); format: cell-based; conditions: 72 hours culture, read-out: IC50 (50% growth inhibitory concentration) PSN-1
Text: as §1, §2

[3] = Solubility (physicochemical properties); conditions: qualitative, in various solvents
Text: The physicochemical properties of UCK14 compounds are shown below.

IC50 [1]: 25.2 µM
IC50 [2]: 16.1 µM
SMILES: CCC(C)C1C(=O)OC1C(=O)NC1CC1CC(NC(=O)C(C)N)C(=O)O (stereo not drawn) [UCK14A1]
Solubility [3]: Soluble in water, methanol and dimethylsulfoxide (DMSO); insoluble in hexane, chloroform and ethyl acetate
